Measured values: patent publication US20120322102A1, “GENETICALLY ENGINEERED HERBICIDE RESISTANT ALGAE” (SAPPHIRE ENERGY, INC., priority 2008, published 2012)
Like-named read-outs stand apart in the source and are kept apart here.

Tests used:
[1] = tested on: Resistant Chlamydomonas reinhardtii; conditions: cited from earlier work; for Highest tolerated concentration: highest concentration an isolated resistant strain can tolerate; for IC50: Vartak and Sujata 1997/1999, read-out: I50
[2] = tested on: Wildtype Chlamydomonas reinhardtii; conditions: cited from earlier work; for Complete Growth inhibition: concentration at which growth is inhibited; for IC50: Vartak and Sujata 1997/1999, read-out: I50
[3] = tested on: Wildtype Chlamydomonas reinhardtii; assay: Herbicide concentration at which growth of wild type algae is inhibited (chart); format: cell-based; conditions: unpublished results
From the text: (§1) Provided below is an exemplary chart of herbicide concentrations that can be used in the embodiments disclosed herein. The concentrations provided are the concentration that growth of the wild type algae is inhibited at, and the highest concentrations that an isolated resistant strain of Chlamydomonas reinhardtii can tolerate. One of skill in the art would be able to determine the proper concentration of the herbicides listed in the chart without undue experimentation.

[4] = tested on: psbD-EPSPS (G163A/A252T) engineered C. reinhardtii strain; assay: Growth on HSM plates with increasing amounts of glyphosate; format: cell-based, Chlamydomonas reinhardtii; conditions: 0-2 mM glyphosate, chloroplast psbD-EPSPS (G163A/A252T) strain
Description: (§2) To characterize the effect of expressing the double mutated C. reinhardtii EPSPS directly in the chloroplast, engineered strains, along with wild type C. reinhardtii cc 1690 (mt+), were plated on HSM plates with increasing amounts of glyphosate (0-2 mM). Wild type C. reinhardtii cc1690 was sensitive to approximately 1 mM glyphosate whereas the psbD-EPSPS (G163A/A252T) and atpA-EPSPS (G163A/A252T) engineered strains were sensitive at approximately 1.8 and 1.6 mM glyphosate, respectively.

[5] = tested on: atpA-EPSPS (G163A/A252T) engineered C. reinhardtii strain; assay: as above; format: cell-based, Chlamydomonas reinhardtii; conditions: 0-2 mM glyphosate, chloroplast atpA-EPSPS (G163A/A252T) strain
Description: as §2

[6] = tested on: wild type C. reinhardtii cc1690 (mt+); assay: as above; format: cell-based, Chlamydomonas reinhardtii; conditions: 0-2 mM glyphosate
Description: as §2

[7] = tested on: Resistant Chlamydomonas reinhardtii; assay: Highest herbicide concentration an isolated resistant strain can tolerate (chart); format: cell-based; conditions: unpublished results
From the text: as §1

CCNc1nc(Cl)nc(NC(C)C)n1 [Atrazine]
Highest tolerated concentration ([1]; Galloway and Mets 1984): 100 µM
Complete Growth inhibition ([2]; Galloway and Mets 1984): 5 µM

CCC(C)n1c(=O)[nH]c(C)c(Br)c1=O (stereo not shown) [Bromacil]
Highest tolerated concentration ([1]; Galloway and Mets 1984): 50 µM
Complete Growth inhibition ([2]; Galloway and Mets 1984): 2 µM

COc1nc(C)nc(NC(=O)NS(=O)(=O)c2ccccc2Cl)n1 [Chlorsulfuron]
Highest tolerated concentration ([1]; Winder and Spalding 1988): 1000 µM
Complete Growth inhibition ([2]; Winder and Spalding 1988): 100 µM

CN(C)C(=O)Nc1ccc(Cl)c(Cl)c1 [DCMU, 3-(3,4-dichlorophenyl)-1,1-dimethylurea]
Highest tolerated concentration ([1]; Galloway and Mets 1984): 200 µM
Complete Growth inhibition ([2]; Galloway and Mets 1984): 2 µM

O=C(O)CNCP(=O)(O)O [Glyphosate]
Complete Growth inhibition [3]: 1 mM
glyphosate concentration the strain was sensitive to [4]: approximately 1.8 mM
glyphosate concentration the strain was sensitive to [5]: ~1.6 mM
glyphosate concentration the strain was sensitive to [6]: approximately 1 mM
Complete Growth inhibition [7]: 5 mM

CC(C)C1(C)N=C(c2nc3ccccc3cc2C(=O)O)NC1=O (stereo not shown) [Imazaquin]
Highest tolerated concentration ([1]; Winder and Spalding 1988): 10000 µM
Complete Growth inhibition ([2]; Winder and Spalding 1988): 1000 µM

CNc1cnn(-c2cccc(C(F)(F)F)c2)c(=O)c1Cl [Norflurazon]
IC50 [1]: 3600 nM
IC50 [2]: 1100 nM

C[n+]1ccc(-c2cc[n+](C)cc2)cc1 [Paraquat]
IC50 [1]: 54000 nM
IC50 [2]: 700 nM
